Laboratory results taken from the supplement of paper PMC10307832.

Legend:
Experiment in all cases: relative viability (nuclei count vs DMSO), 5 days (fraction); higher = more cells survive
5-Fluorouracil + AZD7762 = compound: O=c1[nH]cc(F)c(=O)[nH]1 [5-Fluorouracil] + NC(=O)Nc1cc(-c2cccc(F)c2)sc1C(=O)N[C@H]1CCCNC1 [AZD7762] (partner 0.2 µM)
Summary of the method: (§1)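 Each reported value is a median over duplicate plates. It expresses relative viability: treated-well nuclei count divided by vehicle-well nuclei count. Lung cancer cell lines in 1536-well plates were dosed by pin tool a day after seeding, alone with one drug or with a fixed anchor-drug dose plus five library-drug doses (not always all listed) in √10 steps, and nuclei were counted after 5 days.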

[1] = compound: O=c1[nH]cc(F)c(=O)[nH]1 [5-Fluorouracil] + O=C(c1cc(Cc2n[nH]c(=O)c3ccccc23)ccc1F)N1CCN(C(=O)C2CC2)CC1 [Olaparib] (partner 8 µM)
Summary of the method: as §1

Sulindac + Trametinib = compound: CC1=C(CC(=O)O)c2cc(F)ccc2/C1=C\c1ccc([S+](C)[O-])cc1 [Sulindac] + CC(=O)Nc1cccc(-n2c(=O)n(C3CC3)c(=O)c3c(Nc4ccc(I)cc4F)n(C)c(=O)c(C)c32)c1 [Trametinib] (partner 0.02 µM)
Summary of the method: as §1

[2] = compound: CN[C@@H]1C[C@H]2O[C@@](C)([C@@H]1OC)n1c3ccccc3c3c4c(c5c6ccccc6n2c5c31)C(=O)NC4 [Staurosporine] + CC(=O)Nc1cccc(-n2c(=O)n(C3CC3)c(=O)c3c(Nc4ccc(I)cc4F)n(C)c(=O)c(C)c32)c1 [Trametinib] (partner 0.02 µM)
Summary of the method: as §1

Cell Line	relative viability (5-Fluorouracil + AZD7762; first compound 0.02 µM)	relative viability (5-Fluorouracil + AZD7762; first compound 0.2 µM)	relative viability (5-Fluorouracil + AZD7762; first compound 0.6325 µM)	relative viability (5-Fluorouracil + AZD7762; first compound 2 µM)	relative viability ([1]; first compound 0.02 µM)	relative viability ([1]; first compound 0.2 µM)	relative viability ([1]; first compound 0.6325 µM)	relative viability ([1]; first compound 2 µM)	relative viability (Sulindac + Trametinib; first compound 0.08 µM)	relative viability (Sulindac + Trametinib; first compound 0.253 µM)	relative viability (Sulindac + Trametinib; first compound 0.8 µM)	relative viability (Sulindac + Trametinib; first compound 2.53 µM)	relative viability (Sulindac + Trametinib; first compound 8 µM)	relative viability ([2]; first compound 0.005 µM)	relative viability ([2]; first compound 0.01581 µM)	relative viability ([2]; first compound 0.05 µM)	relative viability ([2]; first compound 0.1581 µM)	relative viability ([2]; first compound 0.5 µM)
HOP-62	0.636	1.06	0.522	0.473	0.39	0.449	0.405	0.387	0.411	0.404	0.34	0.411	0.388	0.359	0.196	0.184	0.141	0.102
IA-LM	–	–	–	–	1	0.576	0.285	0.193	–	–	–	–	–	–	–	–	–	–
LC-2-ad	0.922	0.536	0.331	0.253	0.712	0.682	0.513	0.348	1.02	1.01	0.769	0.928	0.915	0.945	0.732	0.559	0.165	0.122
LCLC-97TM1	0.16	0.276	0.22	0.132	0.334	0.363	0.257	0.232	0.25	0.228	0.213	0.171	0.214	0.168	0.115	0.103	0.0977	0.0977
LCLC-103H	0.734	0.758	0.546	0.381	0.801	0.741	0.559	0.46	0.715	0.722	0.692	0.67	0.694	0.685	0.472	0.445	0.331	0.332
LK-2	0.482	0.486	0.153	0.188	0.589	0.814	0.529	0.428	0.854	0.746	0.705	0.617	0.944	0.906	0.781	0.701	0.669	0.333
LOU-NH91	0.754	0.725	0.44	0.313	0.92	0.853	0.74	0.314	0.771	0.826	0.687	0.785	0.836	0.673	0.493	0.511	0.341	0.303
LU99A	0.364	0.458	0.368	0.177	0.307	0.259	0.267	0.226	0.587	0.585	0.482	0.503	0.687	0.461	0.243	0.23	0.182	0.133
LXF-289	1.1	0.495	0.342	0.313	1.05	0.778	0.439	0.334	0.745	0.713	0.666	0.695	0.686	0.741	0.409	0.412	0.274	0.237
NCI-H23	0.142	0.208	0.163	0.172	0.317	0.373	0.256	0.229	0.39	0.403	0.333	0.364	0.356	0.315	0.165	0.172	0.0936	0.119
NCI-H322M	0.57	0.627	0.608	0.53	0.838	0.764	0.618	0.531	0.474	0.506	0.48	0.5	0.603	0.518	0.418	0.342	0.45	0.432
NCI-H520	–	–	–	–	0.294	0.366	0.33	0.258	0.787	0.707	0.642	0.691	0.699	0.708	0.536	0.303	0.16	0.112
NCI-H661	–	–	–	–	0.776	0.8	0.808	0.693	0.635	0.608	0.487	0.669	0.654	0.522	0.336	0.29	0.248	0.137
NCI-H1299	–	–	–	–	1.06	1.02	0.917	0.655	–	–	–	–	–	–	–	–	–	–
NCI-H1650	–	–	–	–	0.797	0.754	0.381	0.229	0.599	0.794	0.445	0.491	0.766	0.501	0.364	0.187	0.112	0.0438
NCI-H1703	0.103	0.072	0.118	0.118	0.337	0.614	0.365	0.255	–	–	–	–	–	–	–	–	–	–
NCI-H2009	–	–	–	–	0.794	0.668	0.655	0.466	0.256	0.266	0.283	0.245	0.33	0.204	0.143	0.149	0.087	0.0761
NCI-H2023	–	–	–	–	0.517	0.196	0.111	0.0832	0.62	0.543	0.427	0.493	0.716	0.257	0.17	0.145	0.0801	0.0607
NCI-H2228	–	–	–	–	0.998	0.671	0.44	0.33	0.621	0.675	0.5	0.523	0.364	0.332	0.089	0.169	0.0671	0.0687
SK-LU-1	–	–	–	–	0.511	0.551	0.557	0.407	0.657	0.486	0.435	0.398	0.529	0.253	0.15	0.172	0.187	0.12
SK-MES-1	–	–	–	–	0.656	0.32	0.296	0.264	0.563	0.555	0.538	0.561	0.579	0.333	0.281	0.265	0.211	0.139
SW 1573	–	–	–	–	0.477	0.625	0.416	0.262	0.601	0.645	0.496	0.371	0.75	0.137	0.0903	0.055	0.047	0.033
